Laboratory results as given in ChEMBL document CHEMBL1201862, “PubChem BioAssay data set” (2004).
The source made the active and inactive calls.

Columns and labels:
[1] = viability of uninfected HEp-2 cells – cell-based, HTS, cytotoxicity control for RSV inhibitor project, dose response (AID 2410); format: functional; settings: human respiratory syncytial virus
[2] = Luminescence-based counterscreen assay for KLF5 inhibitors: dose response cell-based high throughput screening assay to identify cytotoxic compounds using the IEC-6 intestinal epithelial cell line. [Related pubchem assays: 1700 (Primary screen.), 1834 (Confirmation screen.), 1858 (Summary AID.), 1905 (Counterscreen.)]; format: functional
[3] = target: Glucose-6-phosphate 1-dehydrogenase (Homo sapiens, UniProt P11413); assay: inhibition of Homo sapiens G6PD, dose series – biochemical, fluorescence, selectivity assay for P. falciparum G6PD inhibitor project, dose response (AID 504792); format: functional
Chain of Glucose-6-phosphate 1-dehydrogenase (P11413 whole entry): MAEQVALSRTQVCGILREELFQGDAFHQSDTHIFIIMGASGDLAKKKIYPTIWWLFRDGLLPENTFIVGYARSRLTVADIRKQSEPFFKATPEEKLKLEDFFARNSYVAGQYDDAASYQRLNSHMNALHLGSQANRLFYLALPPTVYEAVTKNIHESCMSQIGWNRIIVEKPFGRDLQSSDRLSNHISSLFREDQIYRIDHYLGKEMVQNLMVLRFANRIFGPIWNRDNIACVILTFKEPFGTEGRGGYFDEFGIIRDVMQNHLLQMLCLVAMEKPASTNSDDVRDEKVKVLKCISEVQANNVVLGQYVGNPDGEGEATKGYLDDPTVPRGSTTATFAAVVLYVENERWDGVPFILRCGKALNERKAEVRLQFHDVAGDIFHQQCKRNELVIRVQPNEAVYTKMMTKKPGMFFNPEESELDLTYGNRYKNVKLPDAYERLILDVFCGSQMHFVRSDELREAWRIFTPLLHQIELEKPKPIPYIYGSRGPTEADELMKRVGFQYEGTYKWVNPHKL

[4] = target: T1, Microphthalmia-associated transcription factor (Homo sapiens, UniProt O75030); assay: reducers of TRPM1 reporter luminescence, concentration series – cell-based, SK-MEL-5, cherry-picked, set 3, MITF inhibitor project, dose response (AID 493073); format: functional;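 further: SK-MEL-5 melanoma cells with luciferase driven by the MITF target TRPM1 promoter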
T1 sequence (O75030 whole entry): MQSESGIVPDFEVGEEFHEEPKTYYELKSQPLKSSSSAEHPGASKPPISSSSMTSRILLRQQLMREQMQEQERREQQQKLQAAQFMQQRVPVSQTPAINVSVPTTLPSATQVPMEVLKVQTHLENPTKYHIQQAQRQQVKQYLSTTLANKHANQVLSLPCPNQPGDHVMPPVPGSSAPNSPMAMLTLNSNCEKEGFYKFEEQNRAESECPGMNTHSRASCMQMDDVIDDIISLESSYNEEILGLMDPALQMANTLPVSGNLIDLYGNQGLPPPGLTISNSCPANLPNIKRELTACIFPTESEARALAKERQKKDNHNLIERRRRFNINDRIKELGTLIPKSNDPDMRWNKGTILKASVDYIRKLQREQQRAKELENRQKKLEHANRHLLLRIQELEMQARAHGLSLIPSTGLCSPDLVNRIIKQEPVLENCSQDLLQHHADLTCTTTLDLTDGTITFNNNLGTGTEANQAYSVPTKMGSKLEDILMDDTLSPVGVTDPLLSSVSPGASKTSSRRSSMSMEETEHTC

Vero = assay: cells; format: functional; settings: Chlorocebus sabaeus
[5] = target: T2, Long-chain-fatty-acid--AMP ligase FadD28 (Mycobacterium tuberculosis, UniProt P9WQ59); assay: Fluorescence polarization aasay to screen for inhibitors that compete for the binding of FadD28 to a bisubstrate Measured in Biochemical System Using Plate Reader - 2147-01_Inhibitor_Dose_CherryPick_Activity.; format: functional, Mycobacterium tuberculosis H37Rv
T2 sequence (P9WQ59 whole entry): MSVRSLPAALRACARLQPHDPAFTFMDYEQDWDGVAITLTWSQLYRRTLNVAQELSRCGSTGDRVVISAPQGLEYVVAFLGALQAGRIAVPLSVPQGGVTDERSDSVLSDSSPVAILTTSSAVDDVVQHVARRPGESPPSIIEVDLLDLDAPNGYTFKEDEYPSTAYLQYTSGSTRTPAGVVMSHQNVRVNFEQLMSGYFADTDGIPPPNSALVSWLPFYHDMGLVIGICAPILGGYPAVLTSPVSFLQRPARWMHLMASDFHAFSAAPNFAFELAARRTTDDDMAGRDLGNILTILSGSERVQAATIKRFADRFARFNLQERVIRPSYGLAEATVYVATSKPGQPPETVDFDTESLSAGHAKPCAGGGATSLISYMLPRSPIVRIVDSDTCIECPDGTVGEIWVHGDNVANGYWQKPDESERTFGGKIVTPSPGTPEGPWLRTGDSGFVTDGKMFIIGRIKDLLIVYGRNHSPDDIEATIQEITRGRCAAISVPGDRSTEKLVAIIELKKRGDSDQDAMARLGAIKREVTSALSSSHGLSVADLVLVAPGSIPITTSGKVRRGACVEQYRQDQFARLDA

[6] = blockers of HIV-1 envelope-mediated cell-cell fusion – cherry-pick, dose response (AID 652057); format: functional, cell-based
[7] = viability loss in CEM21 cells – cell-based, CellTiter-Glo luminescence, cherry-picked, cytotoxicity control for viral fusion inhibitor project, dose response (AID 652042); format: functional;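 further: potency for signal decrease meaning cytotoxicity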
[8] = blockers of HIV-1 ZM109 envelope-driven cell-cell fusion – HeLa effector, CEM target cells, luciferase, cherry-pick, dose response (AID 652058); format: functional, cell-based;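 further: luciferase signal from HIV-1 Env mediated cell-cell fusion of effector and target cells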
[9] = off-target signal loss in HeLa-CEM21 co-culture – HeLa F-luc CTL cells, cherry-picked, counter-screen for HIV-1 Env fusion inhibitor project, dose response (AID 652040); format: functional, cell-based;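 further: potency for signal decrease marking cytotoxic or nonspecific inhibition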
[10] = HIV-1 AD8 envelope cell-cell fusion blockers – cherry-pick, dose response (AID 652062); format: functional, cell-based;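 further: luciferase signal from cell-cell fusion driven by HIV-1 clade B AD8 Env; potency is for inhibitors of fusion seen as a drop in luminescence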
[11] = NIH-3T3 fibroblast cytotoxicity, dose response, cytotoxicity control, cell-based, fluorescence, Alamar Blue, secondary assay (AID 2327); format: functional;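 further: NIH-3T3 mouse fibroblasts cultured with fluconazole at 8 µg/mL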
HeLa = assay: Cytotoxicity counterscreen assay for transcriptional activators of heat shock protein 70 (Hsp70). [Related pubchem assays: 1203, 1252 ]; format: functional; settings: Homo sapiens
Beta-galactosidase [12] = target: T3, Beta-galactosidase (Escherichia coli, UniProt Q8VNN2); assay: PubChem AID 485352; format: functional
T3 sequence (Q8VNN2 whole entry): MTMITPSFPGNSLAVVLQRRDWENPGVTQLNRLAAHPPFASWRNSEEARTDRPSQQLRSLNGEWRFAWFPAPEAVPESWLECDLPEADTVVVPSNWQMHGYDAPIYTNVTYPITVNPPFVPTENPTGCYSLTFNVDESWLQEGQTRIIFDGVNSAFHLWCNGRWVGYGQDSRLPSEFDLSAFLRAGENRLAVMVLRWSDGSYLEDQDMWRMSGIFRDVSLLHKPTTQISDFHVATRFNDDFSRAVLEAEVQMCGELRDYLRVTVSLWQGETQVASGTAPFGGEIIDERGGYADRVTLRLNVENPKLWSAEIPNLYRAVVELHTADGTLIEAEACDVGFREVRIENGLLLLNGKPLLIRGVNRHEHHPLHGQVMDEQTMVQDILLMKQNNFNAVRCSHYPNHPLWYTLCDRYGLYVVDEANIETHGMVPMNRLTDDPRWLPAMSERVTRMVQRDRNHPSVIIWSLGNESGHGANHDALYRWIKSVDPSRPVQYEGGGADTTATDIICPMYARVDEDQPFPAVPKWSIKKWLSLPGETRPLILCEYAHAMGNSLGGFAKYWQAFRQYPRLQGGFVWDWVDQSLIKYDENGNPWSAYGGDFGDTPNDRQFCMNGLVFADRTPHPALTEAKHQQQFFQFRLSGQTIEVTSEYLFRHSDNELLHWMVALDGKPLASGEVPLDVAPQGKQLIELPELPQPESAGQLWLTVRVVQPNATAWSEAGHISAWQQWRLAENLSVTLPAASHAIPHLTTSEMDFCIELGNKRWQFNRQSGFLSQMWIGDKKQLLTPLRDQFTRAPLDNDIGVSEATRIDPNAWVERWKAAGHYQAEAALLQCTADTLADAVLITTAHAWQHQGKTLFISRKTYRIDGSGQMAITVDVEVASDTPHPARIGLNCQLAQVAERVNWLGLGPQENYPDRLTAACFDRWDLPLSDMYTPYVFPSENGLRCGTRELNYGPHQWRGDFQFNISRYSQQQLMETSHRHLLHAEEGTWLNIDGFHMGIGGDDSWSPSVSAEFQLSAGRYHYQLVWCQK

[13] = fluconazole-exposed Candida albicans growth modulators – fluorescence, retest, confirmation (AID 2467); format: functional, cell-based
[14] = target: T4, Type-1 angiotensin II receptor (Homo sapiens, UniProt P30556); assay: antagonism of angiotensin II type 1 receptor – cell-based, uHTS hits, selectivity assay for APJ receptor antagonist project, dose response (AID 463214); format: functional;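 further: antagonist potency against angiotensin II stimulated AT1 response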
T4 sequence (P30556 whole entry): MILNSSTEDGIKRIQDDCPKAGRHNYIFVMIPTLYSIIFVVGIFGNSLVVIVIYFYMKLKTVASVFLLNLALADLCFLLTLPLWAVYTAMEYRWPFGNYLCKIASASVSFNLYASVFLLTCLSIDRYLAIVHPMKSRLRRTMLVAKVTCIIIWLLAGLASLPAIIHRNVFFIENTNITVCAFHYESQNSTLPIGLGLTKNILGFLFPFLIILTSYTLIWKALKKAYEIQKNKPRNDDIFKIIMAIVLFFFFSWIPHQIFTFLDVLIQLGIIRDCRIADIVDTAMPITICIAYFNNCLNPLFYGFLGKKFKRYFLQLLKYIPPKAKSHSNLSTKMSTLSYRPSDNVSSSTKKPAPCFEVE

[15] = target: T5, Kappa-type opioid receptor (Homo sapiens, UniProt P41145); format: functional
T5 sequence (P41145 whole entry): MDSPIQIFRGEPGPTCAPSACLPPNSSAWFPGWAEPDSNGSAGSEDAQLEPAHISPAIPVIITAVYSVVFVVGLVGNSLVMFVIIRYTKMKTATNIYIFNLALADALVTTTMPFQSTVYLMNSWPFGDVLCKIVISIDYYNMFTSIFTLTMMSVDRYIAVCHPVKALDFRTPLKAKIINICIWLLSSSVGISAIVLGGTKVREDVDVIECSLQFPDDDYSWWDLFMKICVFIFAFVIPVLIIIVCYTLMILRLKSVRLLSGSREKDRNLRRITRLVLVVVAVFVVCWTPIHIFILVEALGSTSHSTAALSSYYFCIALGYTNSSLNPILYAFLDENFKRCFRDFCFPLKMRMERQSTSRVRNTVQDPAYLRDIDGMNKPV

Beta-galactosidase [16] = target: T3, Beta-galactosidase; format: functional
[17] = target: Sphingosine 1-phosphate receptor 4 (Homo sapiens, UniProt O95977); assay: Fluorescence dose response cell-based high throughput screening assay for antagonists of the Sphingosine 1-Phosphate Receptor 4 (S1P4). [Related pubchem assays: 1524 (Confirmation in triplicates.), 1510 (Primary screen.)]; format: functional
Chain of Sphingosine 1-phosphate receptor 4 (O95977 whole entry): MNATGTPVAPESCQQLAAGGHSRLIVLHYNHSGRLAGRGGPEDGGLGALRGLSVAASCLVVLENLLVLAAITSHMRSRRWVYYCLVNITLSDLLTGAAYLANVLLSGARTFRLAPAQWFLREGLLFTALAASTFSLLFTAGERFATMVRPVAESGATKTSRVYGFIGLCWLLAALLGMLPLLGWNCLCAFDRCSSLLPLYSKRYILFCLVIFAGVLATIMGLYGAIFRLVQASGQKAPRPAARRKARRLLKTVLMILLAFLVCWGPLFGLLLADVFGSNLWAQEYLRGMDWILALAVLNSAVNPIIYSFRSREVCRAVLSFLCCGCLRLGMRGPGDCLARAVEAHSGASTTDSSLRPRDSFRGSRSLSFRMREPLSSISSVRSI

[18] = target: T5, Kappa-type opioid receptor; format: functional; remark: listed apart in the source
[19] = target: Sphingosine 1-phosphate receptor 1 (Homo sapiens, UniProt P21453); format: functional;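 further: Tango beta-arrestin reporter U2OS cells stimulated with S1P near its EC80; inhibitor potency meaning antagonism of receptor activation by the natural agonist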
Chain of Sphingosine 1-phosphate receptor 1 (P21453 whole entry): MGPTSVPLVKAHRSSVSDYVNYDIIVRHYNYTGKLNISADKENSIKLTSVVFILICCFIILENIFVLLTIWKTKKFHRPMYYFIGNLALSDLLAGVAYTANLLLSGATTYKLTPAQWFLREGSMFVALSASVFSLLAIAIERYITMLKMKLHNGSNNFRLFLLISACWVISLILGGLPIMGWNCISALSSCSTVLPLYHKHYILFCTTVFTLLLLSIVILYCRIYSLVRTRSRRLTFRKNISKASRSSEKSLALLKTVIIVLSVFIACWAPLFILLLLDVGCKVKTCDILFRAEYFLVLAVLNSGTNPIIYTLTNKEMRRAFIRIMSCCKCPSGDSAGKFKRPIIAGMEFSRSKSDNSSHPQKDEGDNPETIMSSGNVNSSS

[20] = target: T6, Replicative DNA helicase DnaB (Mycobacterium tuberculosis, UniProt P9WMR3); assay: DnaB intein splicing inhibitors, dose response, biochemical, cell-free fluorescence (AID 449749); format: functional
T6 sequence (P9WMR3 whole entry): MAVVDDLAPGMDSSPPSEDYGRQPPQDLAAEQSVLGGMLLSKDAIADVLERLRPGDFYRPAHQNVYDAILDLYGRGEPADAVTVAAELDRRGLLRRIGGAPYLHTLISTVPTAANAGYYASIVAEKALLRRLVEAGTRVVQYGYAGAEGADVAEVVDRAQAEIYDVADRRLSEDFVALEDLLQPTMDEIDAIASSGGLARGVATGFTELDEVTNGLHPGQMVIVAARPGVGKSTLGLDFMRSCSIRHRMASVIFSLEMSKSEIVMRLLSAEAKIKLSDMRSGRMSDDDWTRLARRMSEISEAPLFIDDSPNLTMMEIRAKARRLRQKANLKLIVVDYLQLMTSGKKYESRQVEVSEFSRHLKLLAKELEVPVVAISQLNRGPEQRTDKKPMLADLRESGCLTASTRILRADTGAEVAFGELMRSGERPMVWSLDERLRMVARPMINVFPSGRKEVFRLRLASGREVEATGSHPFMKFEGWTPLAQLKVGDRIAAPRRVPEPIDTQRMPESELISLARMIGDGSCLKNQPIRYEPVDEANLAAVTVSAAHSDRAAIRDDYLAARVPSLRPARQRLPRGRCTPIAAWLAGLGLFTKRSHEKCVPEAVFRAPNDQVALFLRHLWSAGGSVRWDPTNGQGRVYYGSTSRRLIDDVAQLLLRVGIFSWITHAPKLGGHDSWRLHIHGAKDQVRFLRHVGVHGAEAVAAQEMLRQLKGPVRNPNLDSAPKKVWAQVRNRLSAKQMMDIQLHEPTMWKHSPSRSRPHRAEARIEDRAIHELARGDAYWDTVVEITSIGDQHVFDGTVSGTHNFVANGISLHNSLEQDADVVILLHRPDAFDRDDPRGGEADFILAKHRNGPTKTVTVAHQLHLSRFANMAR

[21] = target: Heat shock protein HSP 90-alpha (Homo sapiens, UniProt P07900); format: functional, organism-based
BJ = assay: growth inhibition of engineered Ras-driven BJ cells – cell-based, alamar blue fluorescence, cherrypicked samples, dose response (AID 2631); format: functional; settings: Homo sapiens;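 further: confirmatory dose-response assay in RAS-dependent BJ fibroblasts engineered with TERT, LT and ST, with cytotoxicity read by fluorescence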
Protein RecA = target: T7, Protein RecA (Mycobacterium tuberculosis, UniProt P9WHJ3); assay: Fluorescence Cell-Free Homogeneous Dose Retest to Identify Inhibitors of RecA-Intein Splicing Activity. [Related pubchem assays (depositor defined):AID2097, AID2223, AID489010, AID492950]; format: functional
T7 sequence (P9WHJ3 whole entry): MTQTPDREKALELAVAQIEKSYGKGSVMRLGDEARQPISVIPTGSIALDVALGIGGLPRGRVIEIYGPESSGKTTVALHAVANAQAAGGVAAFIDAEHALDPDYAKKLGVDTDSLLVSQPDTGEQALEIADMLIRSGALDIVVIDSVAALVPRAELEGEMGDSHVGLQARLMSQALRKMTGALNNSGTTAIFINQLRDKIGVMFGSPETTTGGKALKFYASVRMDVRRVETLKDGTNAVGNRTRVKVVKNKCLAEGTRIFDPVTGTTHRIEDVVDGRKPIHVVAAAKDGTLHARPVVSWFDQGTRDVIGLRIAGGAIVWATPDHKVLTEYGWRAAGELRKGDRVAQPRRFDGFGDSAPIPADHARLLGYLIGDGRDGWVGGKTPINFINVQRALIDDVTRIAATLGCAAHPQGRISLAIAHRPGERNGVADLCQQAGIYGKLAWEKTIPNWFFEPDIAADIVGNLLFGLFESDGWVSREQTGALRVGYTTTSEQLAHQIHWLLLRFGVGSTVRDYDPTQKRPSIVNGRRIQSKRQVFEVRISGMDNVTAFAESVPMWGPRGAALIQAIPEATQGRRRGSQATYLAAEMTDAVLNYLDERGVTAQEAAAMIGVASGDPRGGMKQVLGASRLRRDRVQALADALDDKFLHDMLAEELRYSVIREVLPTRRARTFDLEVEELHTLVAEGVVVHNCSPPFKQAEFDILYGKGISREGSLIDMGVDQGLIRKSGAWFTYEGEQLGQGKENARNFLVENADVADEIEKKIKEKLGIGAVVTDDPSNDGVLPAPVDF

[22] = reduced cellular PGC1a acetyl-lysine signal – cell-based, cherry-picked samples, dose response (AID 720514); format: functional;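 further: potency may reflect raised or lowered acetylation signal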
[23] = A549 cell cytotoxicity, dose response, cytotoxicity control, plate reader, cherry-pick, antagonist series (AID 743412); format: functional, cell-based
[24] = toxicity toward HepG2 liver cells – cell-based, plate reader, cherry-pick, antagonist series, cytotoxicity control, dose response (AID 743416); format: functional
[25] = blockers of bursicon-stimulated LGR2 cAMP reporter – cell-based, HEK293, CRE-luciferase reporter, cherry pick, set 2, dose response (AID 743343); format: functional;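 further: transfected cells were stimulated with diluted bursicon conditioned medium after compound addition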
[26] = blockade of melanocortin 4 receptor signaling – cell-based, plate reader, cherry pick, counter-screen for LGR2 antagonist project, dose response (AID 743444); format: functional;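 further: transfected HEK 293 cells stimulated with alpha-MSH peptide; potency of inhibitors of the alpha-MSH evoked signal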
[27] = viability loss in HEK293 cells – cell-based, plate reader, cherry-picked samples, cytotoxicity control, dose response (AID 743446); format: functional
Bcl-2-like protein 10 = target: T8, Bcl-2-like protein 10 (Homo sapiens, UniProt Q9HD36); assay: Concentration-response of Bcl-B inhibitors by biochemical FP with TR3 (AID 1243); format: functional
T8 sequence (Q9HD36 whole entry): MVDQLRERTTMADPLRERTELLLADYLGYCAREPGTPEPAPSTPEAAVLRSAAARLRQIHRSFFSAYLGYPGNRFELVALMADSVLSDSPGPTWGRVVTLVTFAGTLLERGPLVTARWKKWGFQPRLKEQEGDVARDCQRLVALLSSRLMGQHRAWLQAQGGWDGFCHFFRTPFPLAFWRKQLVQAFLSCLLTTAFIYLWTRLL

CC(C)(C)c1ccc(C(=O)Nc2sc3c(c2C(=O)O)CCC3)cc1
CC50 [1]: 6.97 µM (active) | IC50 [2]: > 39.8 µM (not active) | IC50 [3]: > 80 µM (inactive) | AC50 [4]: 2.09 µM (active) | CC50 (Vero): > 25 µM (active) | AC50 [5]: > 100 µM (inactive) | AC50 [6]: 2.21 µM (active) | AC50 [7]: 66.1 µM (active) | AC50 [8]: 1.36 µM (active) | AC50 [9]: 4.43 µM (active) | AC50 [10]: 0.786 µM (active)

CC(C)(C)c1ccc(-n2nc(C#N)c(Cl)cc2=O)cc1
EC50 [11]: 5.04 µM (inconclusive) | CC50 (HeLa): > 3.67 µM (not active) | EC50 (Beta-galactosidase [12]): > 40 µM (inactive) | EC50 [13]: > 38 µM (not active) | IC50 [14]: 38.5 µM (not active) | IC50 [15]: 3.68 µM (active) | EC50 (Beta-galactosidase [16]): > 31.5 µM (inactive) | IC50 [17]: 1.87 µM (active) | IC50 [18]: 4.02 µM | IC50 [19]: 9.04 µM (active) | AC50 [20]: 0.746 µM (active) | AC50 [21]: 3.8 µM (active) | EC50 (BJ): 1.13 µM (active) | EC50 (Protein RecA): 0.989 µM (active) | AC50 [22]: 2.85 µM (active) | AC50 [23]: 2.83 µM (active) | AC50 [24]: 2.81 µM (active) | AC50 [25]: 12 µM (active) | AC50 [26]: 14.4 µM (active) | AC50 [27]: 6.44 µM (active)

Cc1ccc(C)n1-c1ccccc1C(=O)O
EC50 (Bcl-2-like protein 10): 0.62 µM (active)
